# Where “and” joins values, the source holds several entries; their conditions need not be identical. Equal values may be shown once.
# What was measured:
# A2780 = assay: Antiproliferative effect against A2780 (GI50); type: cell-based; conditions: Homo sapiens, 72 hours of treatment, cell count
# Procedure: (§1) SKOV-3, A2780 and A2780 CIS were cultured and maintained, as previously described,[50] at 37 °C in RPMI 1640 medium (Euroclone) supplemented with 10% fetal bovine serum (FBS; Euroclone), L-glutamine and penicillin/streptomycin (SIGMA-ALDRICH). OVCA433, HEK-293T, HeLa, HCCLM3, SK-Hep-1, MCF-7, A549 and HCT-116 cells were maintained in DMEM medium (Euroclone) containing 10% FBS (Euroclone), L-glutamine and penicillin/streptomycin (SIGMA-ALDRICH). Wi-38 cells were cultured in DMEM medium (Euroclone) supplemented with 10% FBS (Euroclone), L-glutamine and penicillin/streptomycin (SIGMA-ALDRICH), and 1% non-essential amino acids (NEAA; Euroclone). The cultures were maintained in a constant temperature incubator at 37 °C with 5% CO2. […] Once cell adhesion had been promoted, the compounds were added to the culture medium. After 72 hours of treatment, the cells were counted, and the data analyzed by linear regression. Each experiment was carried out three times in triplicate and three separate cell counts were made for each sample. […] Afterwards, the concentration range was narrowed to the relative value obtained in the first evaluation in order to obtain an accurate value.
# miR-21 = miR-21 expression in HeLa cells (qRT-PCR); type: cell-based, human; conditions: 50 μM, 6 hours
# Procedure: Total RNA was extracted using the Direct-zol RNA MiniPrep kit (Zymo Research) with on-column DNase treatment, according to the manufacturer's instructions. Reverse transcription was carried out with SuperScript VILO cDNA Synthesis Kit (Life Technologies) and the cDNA samples were analyzed by qRT-PCR using PowerUp SYBR Green Master Mix (Thermo Fisher Scientific). For miR-21 expression analysis total RNA was retrotranscribed using miRCURY® LNA® RT Kit (Qiagen) and the cDNA was analyzed by using miRCURY® LNA® miRNA PCR Assay (Qiagen). The oligonucleotides used are the following: GAPDH_FW […]; GAPDH_REV […]; ATP5O_FW […]; ATP5O_REV […]; hsa-miR-21-5p miRCURY LNA miRNA PCR Assay (YP00204230); U6 snRNA (v2) miRCURY LNA miRNA PCR Assay (YP02119464).
# miR-21-5p biogenesis = assay: miR-21-5p luciferase reporter (psi-R21 / psi-CTRL) in HeLa cells; type: cell-based, human; conditions: 50 μM, 6 hours
# Procedure: HeLa cells were transfected with 10 ng of psi-R21 or psi-CTRL using Lipofectamine™ 2000 (Thermo Fisher Scientific) and after 48 hours were treated with either enoxacin or 33 at 20 μM and 50 μM. After 6 hours Renilla luciferase (RLuc) and firefly luciferase (FLuc) activities were measured using the Dual-Luciferase® Reporter Assay System (Promega), following the manufacturer's instructions, and GloMax® Discover Microplate Reader (Promega).
# The binding site for miR-21 was cloned into psiCHECK™-2 Vector (Promega), downstream the Renilla cDNA, by inverted PCR using the following oligonucleotides: 21MRE_FW […]; 21MRE_REV […]. The resulting construct was named psi-R21.
# OVCA433 = assay: Antiproliferative effect against OVCA433 (GI50); type: cell-based; conditions: Homo sapiens, 72 hours of treatment, cell count
# Procedure: as §1
# [1] = tested on: several cancer cell lines; parameters: method as in PMID 21368194; conditions: wide panel of cancer cells; read-out: GI50 against several cancer cell lines; cited from earlier work
# [2] = Cytotoxicity against non-tumor Wi-38 cells (CC50, cell count); type: cell-based; conditions: human, Wi-38 cells (non-tumor), 50% cytotoxicity concentration, 72 hours of treatment
# Procedure: as §1
# [3] = tested on: shRNA to siRNA maturation (GAPDH mRNA); assay: RNAi enhancing activity (shRNA to siRNA maturation, GAPDH mRNA in HEK-293T_shGAPDH); type: cell-based, human; conditions: 50 μM, 48 hours
# Procedure: HEK-293T_shSCR and HEK-293T_shGAPDH were treated with 50 μM of enoxacin and 33 for 48 hours before RNA extraction and expression analysis.
# Lentiviral particles were produced by calcium phosphate transient transfection of HEK-293T cells with specific lentiviral plasmids (shGAPDH: TRCN0000445616 and shSCR: TRCN0000015937 from SIGMA-ALDRICH) together with the packaging plasmids (pLP1and pLP2) and the envelope plasmid pLP/VSVG. For each lentiviral plasmid one 150 mm plate of HEK293T cells was used for transfection. After 14–16 hours the medium was replaced with complete medium supplemented with 1 mM sodium butyrate (SIGMA-ALDRICH). The collection of medium containing lentiviral particles occurs 48 h and 72 h after transfection; complete medium supplemented with sodium butyrate was added after the first collection. […]
# Total RNA was extracted using the Direct-zol RNA MiniPrep kit (Zymo Research) with on-column DNase treatment, according to the manufacturer's instructions. Reverse transcription was carried out with SuperScript VILO cDNA Synthesis Kit (Life Technologies) and the cDNA samples were analyzed by qRT-PCR using PowerUp SYBR Green Master Mix (Thermo Fisher Scientific). For miR-21 expression analysis total RNA was retrotranscribed using miRCURY® LNA® RT Kit (Qiagen) and the cDNA was analyzed by using miRCURY® LNA® miRNA PCR Assay (Qiagen). […]
# SKOV-3 cell line = assay: Antiproliferative effect against the SKOV-3 cell line (GI50, cell count); type: cell-based, human; conditions: Homo sapiens, SK-OV-3, 72 h, 50% cell growth inhibition; 72 hours of treatment, cell count; ND = activity not dose dependent
# Procedure: as §1
structure (smiles),measurement,setting,value
"CCn1cc(C(=O)O)c(=O)c2cc(F)c(N3CCNCC3)nc21 [Enoxacin, enoxacin, reference compound]",GI50,A2780,142 ± 8.73 µM
same,miR-21 level in HeLa cells,miR-21,Upregulation of miR-21
same,"miRNA enhancing effect: Renilla luciferase activity, psi-R21 construct",miR-21-5p biogenesis,miRNA enhancing effect
same,GI50,OVCA433,118 ± 8.89 µM
same,GI50,[1],~125 µM and 125 µM
same,CC50 at 72 h,[2],216 ± 123 µM
same,RNAi enhancing effect (GAPDH mRNA decrease),[3],comparable
same,GI50,SKOV-3 cell line,125 µM
